This is an account of results in PMC11109052, “Metabolism characterization and toxicity of N-hydap, a marine candidate drug for lung cancer therapy by LC–MS method” (Natural Products and Bioprospecting, 2024).

Entries after “also recorded” stand apart in the source; their conditions may differ.

In one data set the test system is RoRγ. Also noted: method as in PMID 35259480. The note with it: cited from earlier work.
The test system of a further data set is Cyp3a11. Description: Real-time PCR mRNA level after 7 days gavage: Cyp3a11 (human homolog CYP3A4). The class given is in vivo, mice. On the set-up: key to CYP3A4 mNA expression: ↑: up-regulation; ↓: down-regulation; –: no change. On the procedure: (§1) Mice were randomly divided into four groups, with eight animals in each group. The mice received oral pretreatment with N-hydap for 7 days at doses of 2, 5, and 10 mg/kg/day, which were considered as the low dose, medium dose, and high dose, respectively. Correspondingly, the control group received PBS. On the 8th day, the liver and kidneys were removed, and organs from eight mice per group were combined to prepare MLMs and MKMs using the detailed procedures above. Subsequently, we determined the activity of CYP and UGT enzymes by specific substrate metabolized with MLMs (0.5 mg/mL) and MKMs (0.2 mg/mL) in vitro. Specifically, the following selective substrates were used for the respective enzymes: PH (1 μM) for CYP1A2, DIC (1 μM) for CYP2C9, MP (90 μM) for CYP2C19, DM (1 μM) for CYP2D6, CZX (10 μM) for CYP2E1, Tes (1 μM) for CYP3A4, SN38 (1 μM) for UGT1A1, CACD (100 μM) for UGT1A3, Sero (20 μM) for UGT1A6, and Prop (1 μM) for UGT1A9. All substrates were dissolved in methanol or DMSO. The incubation procedure was carried out as mentioned above, and the reaction was terminated with VER (20 ng/mL) in ESI+ mode and CLP (200 ng/mL) in ESI− mode. In the ex vivo experiments, the activity of enzymes was measured by quantifying the production of various metabolites (nM/mg protein/min). The metabolites and their corresponding enzymes are as follows: APAP from PH, 4-OH-DIC from DIC, 4-OH-MP from MP, DXO from DM, 6-OH-CZX from CZX, 6-OH-Tes from Tes, SN38-G from SN38, CACD-G from CACD, Sero-G from Sero, Prop-G from Prop. The measurements were performed using multiple reaction monitoring (MRM) transitions, which are specific mass spectrometry transitions used for quantification. The optimized parameters for each metabolite, such as declustering potential and collision energy, were described in Supplementary Table 1. All experiments were conducted in triplicate, to ensure accuracy and reproducibility.
Total RNA from liver and kidney samples taken after 7 days of N-hydap gavage was extracted using the Animal Total RNA Isolation Kit (Foregene, Chengdu, Sichuan, China) following the manufacturer’s instructions. The concentrations of total RNA were determined by a nucleic acid concentration tester at 260/280 nm. A HiScript III RT SuperMix for qPCR (+ gDNA wiper) (Vazyme, Nanjing, Jiangsu, China) was used to measure the concentration of the synthesized cDNA. ChamQ SYBR qPCR Master Mix (Vazyme, Nanjing, Jiangsu, China) and detection were performed using a Light Cycler 480 II (ROCHE, Basel, Switzerland). Real-time PCR was used to analyze the relative mRNA levels of Cyp1a2, Cyp2b10, Cyp2c39, Cyp2d22, Cyp2e1, Cyp3a11, Ugt1a1, Ugt1a6a and Ugt1a9 (human homologs: CYP1A2, CYP2B6, CYP2C19, CYP2D6, CYP2E1, CYP3A4, UGT1A1, UGT1A6, and UGT1A9) in the liver, kidneys, and intestines. […]
(In general: Quantitative PCR measures a nucleic acid by following its amplification.)

A further data set deals with Cyp1a2. In words: Western blot protein level after 7 days gavage: CYP1A2. The data set is classed as in vivo, mice. Also noted: key to CYP1A2 Protein expression: ↑: up-regulation; ↓: down-regulation; –: no change. On the procedure: as §1, with “The optimized parameters for each metabolite, such as declustering potential and collision energy, were described in Supplementary Table 1. All experiments were conducted in triplicate, to ensure accuracy and reproducibility.” left out
After 7 days of N-hydap gavage, the liver and kidney tissues were lysed using RIPA buffer supplemented with a 1% protease inhibitor cocktail. […] Western blot signals were detected using an ECL chemiluminescence detection agent. The relative intensity of each protein band was scanned and quantified using Image J software.

For data set [1], the system named is UGT1A3. Description: DME activity ex vivo in MLMs and MKMs: UGT1A3 (CDCA-G). Also noted: species or system mice. As to the method: as §1, with “The incubation procedure was carried out as mentioned above, and the reaction was terminated with VER (20 ng/mL) in ESI+ mode and CLP (200 ng/mL) in ESI− mode.” left out, “The metabolites and their corresponding enzymes are as follows: APAP from PH, 4-OH-DIC from DIC, 4-OH-MP from MP, DXO from DM, 6-OH-CZX from CZX, 6-OH-Tes from Tes, SN38-G from SN38, CACD-G from CACD, Sero-G from Sero, Prop-G from Prop.” left out, “The optimized parameters for each metabolite, such as declustering potential and collision energy, were described in Supplementary Table 1. All experiments were conducted in triplicate, to ensure accuracy and reproducibility.” left out

For data set [2], the target named is T1, UGT1A3 (Homo sapiens, UniProt P35503).
T1 construct: purchased Cypex (Scotland, UK)
T1 sequence (P35503 29-534): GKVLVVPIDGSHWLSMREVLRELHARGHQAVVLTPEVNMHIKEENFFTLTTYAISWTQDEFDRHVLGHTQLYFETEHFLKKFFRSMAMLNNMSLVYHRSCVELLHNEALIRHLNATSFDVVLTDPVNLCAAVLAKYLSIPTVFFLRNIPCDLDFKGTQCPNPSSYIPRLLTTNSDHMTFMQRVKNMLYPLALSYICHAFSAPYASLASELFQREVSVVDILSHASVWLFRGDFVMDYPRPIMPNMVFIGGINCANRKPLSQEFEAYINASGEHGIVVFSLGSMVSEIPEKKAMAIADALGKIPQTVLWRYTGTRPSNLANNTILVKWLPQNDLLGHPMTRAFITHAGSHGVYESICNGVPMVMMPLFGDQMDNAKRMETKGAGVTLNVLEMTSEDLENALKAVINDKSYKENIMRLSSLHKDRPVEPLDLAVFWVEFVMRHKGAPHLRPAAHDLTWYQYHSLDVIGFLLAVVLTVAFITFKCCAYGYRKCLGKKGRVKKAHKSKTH
In words: Incubation with recombinant human UGT isoforms: UGT1A3. The note with it: recombinant UGT 2 μg/mL. The data set is classed as in vitro ADME. On the procedure: (§2) Incubation of N-hydap (2.5 μM) with eight recombinant human CYP enzymes (CYP1A2, CYP2B6, CYP2C9, CYP2C19, CYP2D6, CYP3A4, CYP4A11 and CYP4F2) at three enzyme concentrations (2, 4, and 20 μg/mL) was conducted following the same procedure as described above for microsomes. Subsequently, incubation with N-hydap (1, 2.5, and 6 μM) and twelve recombinant human UGT isoforms (UGT1A1, UGT1A3, UGT1A4, UGT1A6, UGT1A7, UGT1A8, UGT1A9, UGT1A10, UGT2B4, UGT2B7, UGT2B15 and UGT2B17) was performed, with the enzyme concentration used at 2 μg/mL. All reactions were carried out in triplicate.

The test system of the next data set is UGT1A6. Description: DME activity ex vivo in MLMs and MKMs: UGT1A6 (Sero-G from Sero). On the set-up: species or system mice; key to UGT1A6 Enzymatic activity: ↑: up-regulation; ↓: down-regulation; –: no change. As to the method: as §1
The next data set has as its system Cyp2e1. Description: DME activity ex vivo in MLMs and MKMs: CYP2E1 (6-OH-CZX from CZX). On the set-up: species or system mice; key: ↑: up-regulation; ↓: down-regulation; –: no change. On the procedure:
as §1, with “The incubation procedure was carried out as mentioned above, and the reaction was terminated with VER (20 ng/mL) in ESI+ mode and CLP (200 ng/mL) in ESI− mode.” left out, “The metabolites and their corresponding enzymes are as follows: APAP from PH, 4-OH-DIC from DIC, 4-OH-MP from MP, DXO from DM, 6-OH-CZX from CZX, 6-OH-Tes from Tes, SN38-G from SN38, CACD-G from CACD, Sero-G from Sero, Prop-G from Prop.” left out, “The optimized parameters for each metabolite, such as declustering potential and collision energy, were described in Supplementary Table 1. All experiments were conducted in triplicate, to ensure accuracy and reproducibility.” left out

The test system of the next data set is normal wild-type mice. Description: Toxicity of 7-day gavage in normal wild-type mice.
A further data set addresses T2, UGT1A1 (Homo sapiens, UniProt P22309).
T2 construct: purchased Cypex (Scotland, UK)
Description: Incubation with recombinant human UGT isoforms: UGT1A1. The data set is classed as in vitro ADME. The following applies: recombinant UGT 2 μg/mL. As to the method: as §2

The mark [3] stands for this setting: mice, 2, 5, 10 mg/kg gavage, 7 days.

T2 sequence (P22309 26-533): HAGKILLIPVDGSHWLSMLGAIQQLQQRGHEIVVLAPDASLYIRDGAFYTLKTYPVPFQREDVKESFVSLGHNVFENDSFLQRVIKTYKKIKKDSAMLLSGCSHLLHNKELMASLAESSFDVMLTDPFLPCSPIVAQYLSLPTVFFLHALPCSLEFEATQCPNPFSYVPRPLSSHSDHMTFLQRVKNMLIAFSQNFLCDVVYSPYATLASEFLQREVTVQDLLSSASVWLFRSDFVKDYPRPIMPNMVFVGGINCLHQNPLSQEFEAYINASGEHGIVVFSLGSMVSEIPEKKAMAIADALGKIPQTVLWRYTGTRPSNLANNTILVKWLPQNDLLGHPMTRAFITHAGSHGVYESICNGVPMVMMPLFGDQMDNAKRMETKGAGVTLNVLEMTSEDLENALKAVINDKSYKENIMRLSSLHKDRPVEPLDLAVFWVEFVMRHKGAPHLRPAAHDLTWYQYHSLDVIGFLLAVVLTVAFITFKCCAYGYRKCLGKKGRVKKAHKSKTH
Description for normal wild-type mice: During the continuous gavage administration of N-hydap (2, 5, 10 mg/kg) to mice, their body weight was monitored daily and the mice’s activity and mental state were closely observed. […] To assess the extent of injury in the heart, liver, and kidneys, cardiac LDH, plasma ALT, AST, and Cr were measured as biochemical markers (Fig. 7B–D). Additionally, blood routines were examined, including RBC (10^12/L), HCT (%), HGB (g/dL), WBC (10^9/L), PLT (10^9/L), and Lymphocytes (%), which were used as indicators to evaluate spleen toxicity (Fig. 7E). […] To investigate this further, HE staining on tissue sections was performed from both the control group and the highest dose group (10 mg/kg).
Fig. 7 Normal wild-type mice were administered by N-hydap (2, 5, 10 mg/kg) gavage for 7 days. A Changes in body weight in mice. B Cardiac LDH level. C, D Plasma ALT, AST and Cr levels. E Blood routine indicators including RBC, HCT, HGB, WBC, PLT and Lymphocytes. F H&E staining of sections of primary organs, original magnification ×200 (mean ± S.D, n = 5–6/group). ns, no significance, were compared with control group.

For the compound `CC1CCC2C(C=CC(C)C2C(=O)c2c(O)c(C3(O)CCC(O)C4OC43)cn(O)c2=O)C1` (centres unmarked) [N-hydap, N-Hydroxyapiosporamide], the “action on RoRγ” value in the data set on RoRγ is reported as “RoRγ antagonist”. The “CYP3A4 mNA expression” value with Cyp3a11 (Kidney) and in the data set with Cyp3a11 (Liver) was “↑” throughout. In addition, in the data set on Cyp3a11 (mice, 2, 5, 10 mg/kg p.o. 7 days, intestines), the “mRNA levels of Cyp3a11” value was “slight reduction”. Further, in the data set on Cyp3a11 (mice, 2, 5, 10 mg/kg p.o. 7 days, liver and kidneys), the “increase of mRNA levels of Cyp3a11” value is 78%-160%. In the data set on Cyp1a2 (Kidney), the “CYP1A2 Protein expression” value is recorded as “↑”. The “up-regulation of protein levels of CYP1A2” value in the data set on Cyp1a2 (mice, 10 mg/kg p.o. 7 days, kidney) worked out at 117%. The “decrease of protein levels of CYP1A2” value with Cyp1a2 (mice, p.o. 7 days, liver) is recorded as 68%. Besides, the “elevation of formation rate of CDCA-G” value with UGT1A3 [1] (MLMs and MKMs, range stated jointly for APAP, SN38-G, 6-OH-Tes and CDCA-G) is 12%-331%. Moreover, in the data set with UGT1A3 [1] (after 7 days of oral administration), the “catalytic activity of UGT1A3” value is recorded as “significantly increased”. Besides, the “share of N-hydap glucuronidation by UGT1A3” value at UGT1A3 [2] is “over 80%”. The results for the “UGT1A6 Enzymatic activity” value with UGT1A6 (Kidney) and in the data set with UGT1A6 (Liver) were “–” and “↓”, respectively. Further, in the data set with UGT1A6 (liver microsomes of mice pretreated 7 days p.o.), the “reduction of formation rate of Sero-G vs control” value amounted to 72%. Also, the “CYP2E1 Enzymatic activity” value in the data set with Cyp2e1 (Kidney) was “↑”; with Cyp2e1 (Liver), “↓”. In addition, in the data set with normal wild-type mice (Table 4 experimental column), the “Toxicity LD50, experimental results” value is listed as “High security”. Moreover, the behavior during gavage entry in the data set on normal wild-type mice (setting [3]) was “did not exhibit any abnormal behavior”. Besides, the “biochemical markers (cardiac LDH, plasma ALT, AST, Cr) and blood routine indicators vs control” value in the data set on normal wild-type mice (setting [3]) is reported as “did not show any significant differences”. In addition, the body weight entry with normal wild-type mice (setting [3]) is given as “No significant changes”. The “HE staining of important tissues and organs” value in the data set with normal wild-type mice (mice, highest dose group 10 mg/kg, 7 days) is “maintained their structural integrity”. The “toxicity of continuous gavage at normal doses” value with normal wild-type mice (normal wild mice, 2, 5, 10 mg/kg, 7 days) is listed as “did not result in significant toxicity; also recorded: did not exhibit any toxicity”. Further, the “contribution of UGT1A1 to formation of N-hydap-G” value at UGT1A1 is listed as “secondary contributors”.
